What was measured:
[1] = Study No. 15-2 (non-GLP): MTD and 7-day once daily oral gavage toxicity of fospropofol disodium; format: in vivo, Beagle dogs; conditions: dog, in vivo, Beagle dogs
Beagle dogs = assay: as above; format: in vivo
[2] = Study No. 15-1 (non-GLP): MTD and 7-day once daily oral gavage toxicity of fospropofol disodium; format: in vivo, Sprague-Dawley rats; conditions: rat, in vivo; oral gavage, Sprague-Dawley rats
From the text: (§1) The purpose of Study No. 15-1 (non-GLP) was to determine the maximum tolerated close (MTD) of fospropofol when administered by oral gavage to Sprague-Dawley rats (Phase 1) and to evaluate the potential toxicity of fospropofol in Sprague-Dawley rats when administered once daily by oral gavage for 7 days (Phase 2).

Sprague-Dawley rats = assay: as above; format: in vivo
From the text: as §1

[3] = test system: moderate to severe migraine headache; assay: Study A17: clinical course (headache pain, most bothersome symptom, associated migraine symptoms); format: in vivo, human; conditions: 800 mg oral
Procedure: The study is planned to complete approximately 85 subjects. • Enrolled subjects will be asked to come to the study site for treatment when they experience a qualifying migraine headache. Dosing must occur within 4 hours after onset of the migraine symptoms. If treatment at the study site is not feasible or practicable within 4 hours after onset of migraine symptoms, subjects should use their usual medication for that headache and attempt to visit the clinic for treatment as soon as possible (within 4 hours) after onset of their next migraine headache. Dosing must occur within 60 days after enrollment (see Post-enrollment Period below). • At clinic check-in for treatment, study personnel will verify eligibility for closing regarding the criteria for a qualifying headache and adherence to post-enrollment study restrictions (see Eligibility for Dosing below). • Treatment will consist of a single oral dose of fospropofol disodium. […] Because the prevalence of migraine headaches is higher in women than in men, efforts will be made to enroll at least 50% women. • Subjects must meet the general inclusion and exclusion criteria listed below (Inclusion Criteria and Exclusion Criteria) at screening to be enrolled in the study. To be eligible for fospropofol disodium treatment after onset of a migraine headache, enrolled subjects must meet criteria specific to the presenting headache at clinic check-in (see Qualifying Headache below) and adhere to study restrictions specific to the period between enrollment and clinic check-in (see Post-enrollment Restrictions below). • Inclusion Criteria Subjects must meet all of the following criteria at screening to be enrolled in the study: • 1. Written informed consent approved by the Institutional Review Board (IRB) given before any study-related procedures are performed • 2. […] Complete abstinence alone can be used as a method of contraception. • 6. […] Able to comprehend the nature of the study, capable of giving written informed consent, and able to communicate effectively with clinic staff (as assessed by the investigator) • 8. Available to volunteer for the entire study duration and willing to adhere to all protocol requirements, including the post-enrollment restrictions (see Post-enrollment Restrictions below) • 9. Agrees not to post any information related to the study on any website or social media site (e.g., Facebook, Twitter, LinkedIn, Google+, etc.) until the entire trial has been completed • 10. Willing to forgo rescue medicine for at least 2 hours after initiation of treatment with study drug (see In-Clinic Rescue Medicine) • Exclusion Criteria Subjects to whom any of the following criteria apply at screening will be excluded: • 1. History of hemiplegic migraine (at any time in the past). • 2. History of headaches of any type occurring on ≥15 days/month during any of the 3 months prior to screening. • 3.

[4] = 1 hr postdose, No rescue, N = 18
[5] = 2 h postdose, No rescue, N = 18
[6] = 4 h postdose, No rescue, N = 18
[7] = 24 h postdose (D2), No rescue, N = 18
[8] = 24 h postdose (D2), Total, N = 18
[9] = 48 h postdose (D3), Rescue, N = 18
[10] = 48 h postdose (D3), Total, N = 18

## CC(C)c1cccc(C(C)C)c1OCOP(=O)([O-])O.[Na+] [fospropofol disodium]
[1]
  MTD at 7 days: 160 mg/kg/day
Beagle dogs; Beagle dogs
  MTD: 3200 mg/m^2/day
Beagle dogs; single fospropofol doses up to 120 mg/kg or 120 and 160 mg/kg/day once daily for 7 days
  Tolerability: tolerated at all closes with no mortality or adverse findings
[2]
  MTD at 7 days: 250 mg/kg/day
Sprague-Dawley rats; 150 mg/kg/day, Day 7, approximately 30 minutes postdose
  Mortality: one 150 mg/kg/day TK female was found dead
Sprague-Dawley rats; oral gavage, Sprague-Dawley rats
  MTD: 1500 mg/m^2/day
Sprague-Dawley rats; oral gavage, single fospropofol doses up to 300 mg/kg or 150 and 250 mg/kg/day once daily for 7 days
  Tolerability: well tolerated at all closes
[3]; 2-24 hours postdose, N = 18
  Sustained MBS-free response: No, %: (44.4) %
  Sustained MBS-free response: Yes, %: (55.6) %
  Sustained headache pain freedom: No, %: (77.8) %
  Sustained headache pain freedom: Yes, %: (22.2) %
  Sustained headache pain relief: No, %: (33.3) %
  Sustained headache pain relief: Yes, %: (66.7) %
[3]; 2-48 hours postdose, N = 18
  Sustained MBS-free response: No, %: (50) %
  Sustained MBS-free response: Yes, %: (50) %
  Sustained headache pain freedom: No, %: (83.3) %
  Sustained headache pain freedom: Yes, %: (16.7) %
  Sustained headache pain relief: No, %: (38.9) %
  Sustained headache pain relief: Yes, %: (61.1) %
[3]; [4]
  Most Bothersome Symptom: MBS free, %: (38.9) %
  Most Bothersome Symptom: MBS present, %: (61.1) %
  Severity of headache pain: Mild pain, %: (50.0) %
  Severity of headache pain: Moderate pain, %: (33.3) %
  Severity of headache pain: Pain free, %: (5.6) %
  Severity of headache pain: Severe pain, %: (11.1) %
[3]; 1 hr postdose, Total, N = 18
  Most Bothersome Symptom: MBS free, %: (38.9) %
  Most Bothersome Symptom: MBS present, %: (61.1) %
  Severity of headache pain: Mild pain, %: (50.0) %
  Severity of headache pain: Moderate pain, %: (33.3) %
  Severity of headache pain: Pain free, %: (5.6) %
  Severity of headache pain: Severe pain, %: (11.1) %
[3]; 1 hr postdose, individual migraine subjects (N = 12)
  Headache Pain level 1 hr: Severe and Mild and None and Moderate
[3]; [5]
  Most Bothersome Symptom: MBS free, %: (66.7) %
  Severity of headache pain: Mild pain, %: (61.1) %
  Severity of headache pain: Moderate pain, %: (16.7) %
  Severity of headache pain: Pain free, %: (22.2) %
[3]; 2 h postdose, Total, N = 18
  Most Bothersome Symptom: MBS free, %: (66.7) %
  Most Bothersome Symptom: MBS present, %: (33.3) %
  Severity of headache pain: Mild pain, %: (61.1) %
  Severity of headache pain: Moderate pain, %: (16.7) %
  Severity of headache pain: Pain free, %: (22.2) %
[3]; 2 hr postdose, individual migraine subjects (N = 12)
  Headache Pain level 2 hr: Moderate and None and Mild
[3]; [6]
  Most Bothersome Symptom: MBS free, %: (77.8) %
  Severity of headache pain: Mild pain, %: (22.2) %
  Severity of headache pain: Moderate pain, %: (5.6) %
  Severity of headache pain: Pain free, %: (55.6) %
[3]; 4 h postdose, Rescue, N = 18
  Most Bothersome Symptom: MBS free, %: (11.1) %
  Most Bothersome Symptom: MBS present, %: (11.1) %
  Severity of headache pain: Mild pain, %: (5.6) %
  Severity of headache pain: Pain free, %: (11.1) %
[3]; 4 h postdose, Total, N = 18
  Most Bothersome Symptom: MBS free, %: (88.9) %
  Most Bothersome Symptom: MBS present, %: (11.1) %
  Severity of headache pain: Mild pain, %: (27.8) %
  Severity of headache pain: Moderate pain, %: (5.6) %
  Severity of headache pain: Pain free, %: (66.7) %
[3]; 4 hr postdose, individual migraine subjects (N = 12)
  Headache Pain level 4 hr: Moderate and None and Mild and Mild [b]
[3]; [7]
  Severity of headache pain: Mild pain, %: (16.7) %
  Severity of headache pain: Moderate pain, %: (11.1) %
  Severity of headache pain: Pain free, %: (72.2) %
[3]; 24 h postdose (D2), Rescue, N = 18
  Severity of headache pain: Moderate pain, %: (11.1) %
[3]; [8]
  Severity of headache pain: Mild pain, %: (16.7) %
  Severity of headache pain: Moderate pain, %: (22.2) %
  Severity of headache pain: Pain free, %: (72.2) %
[3]; 24 h postdose (Day 2), No rescue, N = 18
  Most Bothersome Symptom: MBS free, %: (72.2) %
[3]; 24 h postdose (Day 2), Rescue, N = 18
  Most Bothersome Symptom: MBS free, %: (11.1) %
[3]; 24 h postdose (Day 2), Total, N = 18
  Most Bothersome Symptom: MBS free, %: (83.3) %
[3]; 48 h postdose (D3), No rescue, N = 18
  Severity of headache pain: Pain free, %: (83.3) %
[3]; [9]
  Severity of headache pain: Mild pain, %: (11.1) %
  Severity of headache pain: Moderate pain, %: (22.2) %
[3]; [10]
  Severity of headache pain: Mild pain, %: (11.1) %
  Severity of headache pain: Moderate pain, %: (22.2) %
  Severity of headache pain: Pain free, %: (83.3) %
[3]; 48 h postdose (Day 3), No rescue, N = 18
  Most Bothersome Symptom: MBS free, %: (66.7) %
[3]; 48 h postdose (Day 3), Rescue, N = 18
  Most Bothersome Symptom: MBS free, %: (11.1) %
[3]; 48 h postdose (Day 3), Total, N = 18
  Most Bothersome Symptom: MBS free, %: (77.8) %
[3]; Discharge, No rescue, N = 18
  Most Bothersome Symptom: MBS free, %: (72.2) %
  Severity of headache pain: Mild pain, %: (11.1) %
  Severity of headache pain: Pain free, %: (66.7) %
[3]; Discharge, Rescue, N = 18
  Most Bothersome Symptom: MBS free, %: (16.7) %
  Severity of headache pain: Mild pain, %: (5-6) %
  Severity of headache pain: Pain free, %: (11.1) %
[3]; Discharge, Total, N = 18
  Most Bothersome Symptom: MBS free, %: (88.9) %
  Severity of headache pain: Mild pain, %: (16.7) %
  Severity of headache pain: Pain free, %: (77.8) %
[3]; N = 18
  Freedom from MBS at 2 hours: No, %: (33.3) %
  Freedom from MBS at 2 hours: Yes, %: (66.7) %
  Freedom from both migraine headache pain and MBS at 2 hours: No, %: (77.8) %
  Freedom from both migraine headache pain and MBS at 2 hours: Yes, %: (22.2) %
  Freedom from migraine headache pain at 2 hours: No, %: (77.8) %
  Freedom from migraine headache pain at 2 hours: Yes, %: (22.2) %
[3]; most bothersome symptom present, 1 hr postdose, individual migraine subjects (N = 12)
  MBS (Y/N) 1 hr: Yes and No
[3]; most bothersome symptom present, 2 hr postdose, individual migraine subjects (N = 12)
  MBS (Y/N) 2 hr: No and Yes
[3]; most bothersome symptom present, 4 hr postdose, individual migraine subjects (N = 12)
  MBS (Y/N) 4 hr: No and Yes and Yes [b]

Source: patent publication US12377110B2, “Fospropofol methods and compositions” (Epalex Corporation, priority 2019, dated 2025)
